Patent publication US20240246916A1, “7-NITRO-8-HYDROXYQUINOLINE DERIVATIVES, PREPARATION METHOD THEREFORE AND MEDICAL USE THEREOF” (Jiangsu Yahong Meditech Co., Ltd., priority 2021, published 2024)
In brackets after ≈: the same amount, converted by molar mass.

Tests used:
Type in all cases: cell-based
[1] = tested on: Bladder cancer cell line UM-UC-3; assay: Inhibitory activity on cancer cells, CellTiter-Glo viability, UM-UC-3; settings: Homo sapiens, UMUC3, 72 hours treatment
In short: (§1)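 24 h attachment; HUVEC 2000, UM-UC-3/RM-1 3000, LNCaP 5000 cells/well. 8-pt 2.5× dilution from 100 μmol, 72 h, 37 °C/5% CO2. CellTiter-Glo; IC50 from curve fit; max = cells + DMSO vehicle, min = medium only.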

[2] = tested on: Staphylococcus aureus (methicillin-resistant and sensitive clinical isolates; ATCC29213); assay: MIC by micro broth dilution (CLSI), Staphylococcus aureus; settings: for MIC50 / MIC90: Clinical strain; for MIC50: read-out: MIC50; for MIC90: read-out: MIC90; for MIC: Standard strain ATCC29213, read-out: MIC
In short: (§2)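 First, DMSO solutions were diluted over 128 to 0.06 mg/L in CAMHB; next, overnight cultures adjusted to 0.5 McFarland and diluted 100-fold were added to give 10^5 CFU/mL; then incubation ran 20 hours at 35±2° C, with CLSI 2019 M100 used for interpretation.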

[3] = tested on: Acinetobacter baumannii (carbapenem-resistant clinical isolates; ATCC19606); assay: MIC by micro broth dilution (CLSI), Acinetobacter baumannii; settings: Acinetobacter baumannii; for MIC50 / MIC90: ATCC19606, Clinical strain; for MIC50: read-out: MIC50; for MIC90: read-out: MIC90; for MIC: Standard strain ATCC19606, read-out: MIC
In short: as §2

[4] = tested on: Prostate cancer cell line LNcaP; assay: Inhibitory activity on cancer cells, CellTiter-Glo viability, LNcaP; settings: Homo sapiens, 72 hours treatment
In short: as §1

[5] = MIC by micro broth dilution (CLSI), Klebsiella pneumoniae; settings: for MIC50 / MIC90: Standard strain; for MIC: Standard strain ATCC43816
Text: The test bacteria were one strain of clinically isolated carbapenem-resistant Escherichia coli, two strains of carbapenem-resistant Acinetobacter baumannii, two strains of methicillin-resistant Staphylococcus aureus, two strains of sensitive Staphylococcus aureus, and 7 strains of Klebsiella pneumoniae. Duplicate strains isolated from the same patient were eliminated. There were also […] quality control strains Escherichia coli ATCC25922, Acinetobacter baumannii ATCC19606, Staphylococcus aureus ATCC29213, Klebsiella pneumoniae ATCC BAA-1705, ATCC 43816, ATCC BAA-2472, ATCC-BAA-1898, ATCC-BAA-1899, NCTC 13440 and ATCC-BAA-2470. There were 24 strains in total.
According to the recommendations of relevant documents of the American Clinical and Laboratory Standards Institute (CLSI), the micro broth dilution method was used to determine the MIC of the compounds of the present invention against clinically isolated strains. • 3.1 Formulation of antibacterial drug: All the compounds of the present invention were dissolved in DMSO. The drug concentration range was 128 mg/L to 0.06 mg/L. • 3.2 Culture medium: The drug susceptibility test used cation adjusted Mueller-Hinton broth (CAMHB). • 3.3 Amount of inoculum: The test bacteria cultured overnight were adjusted to 0.5 McFarland turbidity by the direct colony suspension method, and diluted 100 folds, the final inoculum amount was 10^5 CFU/mL. • 3.4 Culture conditions: The test bacteria were cultured at 35±2° C. for 20 hours in air.
The drug susceptibility test results were interpretated by reference to CLSI 2019 M100 29th edition criteria.
The quality control strains of the drug susceptibility test were Escherichia coli ATCC 25922, Acinetobacter baumannii ATCC 19606, Staphylococcus aureus ATCC 29213, Klebsiella pneumoniae ATCC BAA-1705, ATCC 43816, ATCC BAA-2472, ATCC-BAA-1898, ATCC-BAA-1899, NCTC 13440 and ATCC-BAA-2470.
The results of drug susceptibility test were statistically analyzed by WHONET software (version 5.6).

[6] = tested on: Escherichia coli (carbapenem-resistant clinical isolate; ATCC25922); assay: MIC by micro broth dilution (CLSI), Escherichia coli; settings: Escherichia coli; for MIC50 / MIC90: ATCC25922, Clinical strain; for MIC50: read-out: MIC50; for MIC90: read-out: MIC90; for MIC: Standard strain ATCC25922, read-out: MIC
In short: as §2

[7] = tested on: Endothelial cell line HUVEC; assay: Inhibitory activity on cells, CellTiter-Glo viability, HUVEC; settings: Homo sapiens, 72 hours treatment
In short: as §1

[8] = tested on: Mouse prostate cancer cell line RM1; assay: Inhibitory activity on cancer cells, CellTiter-Glo viability, RM1; settings: 72 hours treatment
In short: as §1

Cc1cc2cccnc2c(O)c1[N+](=O)[O-] [Example 2, 6-Methyl-7-nitroquinolin-8-ol]
IC50 [1]: 3.88 µM
MIC50 [2]: 4 µg/mL (≈ 19.6 µM)
MIC90 [2]: 4 µg/mL (≈ 19.6 µM)
MIC50 [3]: 8 µg/mL (≈ 39.2 µM)
MIC90 [3]: 8 µg/mL (≈ 39.2 µM)
IC50 [4]: 5.97 µM
MIC50 [5]: 32 µg/mL (≈ 157 µM)
MIC90 [5]: 64 µg/mL (≈ 313 µM)
MIC50 [6]: 16 µg/mL (≈ 78.4 µM)
MIC90 [6]: 64 µg/mL (≈ 313 µM)
MIC [6]: 8 µg/mL (≈ 39.2 µM)
IC50 [7]: 7.06 µM

Cc1cnc2c(O)c([N+](=O)[O-])ccc2c1 [Example 8, 3-Methyl-7-nitroquinolin-8-ol]
IC50 [1]: 3.77 µM
MIC50 [2]: 8 µg/mL (≈ 39.2 µM)
MIC90 [2]: 8 µg/mL (≈ 39.2 µM)
IC50 [8]: 3.18 µM
MIC50 [3]: 8 µg/mL (≈ 39.2 µM)
MIC90 [3]: 16 µg/mL (≈ 78.4 µM)
IC50 [4]: 9.3 µM
MIC50 [5]: 32 µg/mL (≈ 157 µM)
MIC90 [5]: 32 µg/mL (≈ 157 µM)
MIC50 [6]: 4 µg/mL (≈ 19.6 µM)
MIC90 [6]: 4 µg/mL (≈ 19.6 µM)
IC50 [7]: 5.7 µM

O=[N+]([O-])c1ccc(O)c2ncccc12 [Nitroxoline, nitroxoline, reference compound]
IC50 [1]: 9.2 µM
MIC50 [2]: 4 µg/mL (≈ 21 µM)
MIC90 [2]: 4 µg/mL (≈ 21 µM)
MIC [2]: 4 µg/mL (≈ 21 µM)
IC50 [8]: 4.3 µM
MIC50 [3]: 4 µg/mL (≈ 21 µM)
MIC90 [3]: 4 µg/mL (≈ 21 µM)
MIC [3]: 2 µg/mL (≈ 10.5 µM)
IC50 [4]: 5.1 µM
MIC50 [5]: 8 µg/mL (≈ 42.1 µM)
MIC90 [5]: 16 µg/mL (≈ 84.1 µM)
MIC [5]: 4 µg/mL (≈ 21 µM)
MIC50 [6]: 8 µg/mL (≈ 42.1 µM)
MIC90 [6]: 16 µg/mL (≈ 84.1 µM)
MIC [6]: 4 µg/mL (≈ 21 µM)
IC50 [7]: 4.5 µM

Cc1ccc2ccc([N+](=O)[O-])c(O)c2n1 [Example 6, 2-Methyl-7-nitroquinolin-8-ol]
MIC50 [2]: 64 µg/mL (≈ 313 µM)
MIC90 [2]: 64 µg/mL (≈ 313 µM)
MIC50 [3]: > 64 µg/mL
MIC90 [3]: > 64 µg/mL
MIC50 [5]: > 64 µg/mL
MIC90 [5]: > 64 µg/mL
MIC50 [6]: 64 µg/mL (≈ 313 µM)
MIC90 [6]: 64 µg/mL (≈ 313 µM)

O=[N+]([O-])c1ccc2c(C3CC3)ccnc2c1O [Example 11, 4-Cyclopropyl-7-nitroquinolin-8-ol]
IC50 [1]: 2.71 µM
MIC50 [2]: 8 µg/mL (≈ 34.7 µM)
MIC90 [2]: 8 µg/mL (≈ 34.7 µM)
MIC [2]: 4 µg/mL (≈ 17.4 µM)
IC50 [8]: 3.42 µM
MIC50 [3]: 16 µg/mL (≈ 69.5 µM)
MIC90 [3]: 128 µg/mL (≈ 556 µM)
MIC [3]: > 128 µg/mL
IC50 [4]: 1.67 µM
MIC50 [5]: 64 µg/mL (≈ 278 µM)
MIC90 [5]: 64 µg/mL (≈ 278 µM)
MIC50 [6]: 8 µg/mL (≈ 34.7 µM)
MIC90 [6]: 128 µg/mL (≈ 556 µM)
MIC [6]: > 128 µg/mL
IC50 [7]: 2.97 µM

O=[N+]([O-])c1ccc2ccc(F)nc2c1O [Example 5, 2-Fluoro-7-nitroquinolin-8-ol]
MIC50 [2]: 64 µg/mL (≈ 307 µM)
MIC90 [2]: 64 µg/mL (≈ 307 µM)
MIC50 [3]: > 64 µg/mL
MIC90 [3]: > 64 µg/mL
MIC50 [5]: > 64 µg/mL
MIC90 [5]: > 64 µg/mL
MIC50 [6]: 32 µg/mL (≈ 154 µM)
MIC90 [6]: 32 µg/mL (≈ 154 µM)

O=[N+]([O-])c1cc(I)c2cccnc2c1O [Example 3, 5-Iodo-7-nitroquinolin-8-ol]
MIC50 [3]: > 64 µg/mL
MIC90 [3]: > 64 µg/mL
MIC50 [5]: > 64 µg/mL
MIC90 [5]: > 64 µg/mL

N#Cc1cc([N+](=O)[O-])c(O)c2ncccc12 [Example 9, 8-Hydroxy-7-nitroquinoline-5-carbonitrile]
MIC50 [2]: > 64 µg/mL
MIC90 [2]: > 64 µg/mL
MIC50 [3]: > 64 µg/mL
MIC90 [3]: > 64 µg/mL
MIC50 [5]: 64 µg/mL (≈ 297 µM)
MIC90 [5]: > 64 µg/mL
MIC50 [6]: > 64 µg/mL
MIC90 [6]: > 64 µg/mL

Cc1ccnc2c(O)c([N+](=O)[O-])ccc12 [Example 10, 4-Methyl-7-nitroquinolin-8-ol]
MIC50 [2]: 16 µg/mL (≈ 78.4 µM)
MIC90 [2]: 16 µg/mL (≈ 78.4 µM)
MIC50 [3]: 32 µg/mL (≈ 157 µM)
MIC90 [3]: 64 µg/mL (≈ 313 µM)
MIC50 [5]: > 64 µg/mL
MIC90 [5]: > 64 µg/mL
MIC50 [6]: 32 µg/mL (≈ 157 µM)
MIC90 [6]: 32 µg/mL (≈ 157 µM)

O=[N+]([O-])c1ccc2cccnc2c1O [Example 1, 7-Nitroquinolin-8-ol]
IC50 [1]: 9.33 µM
MIC50 [2]: 4 µg/mL (≈ 21 µM)
MIC90 [2]: 4 µg/mL (≈ 21 µM)
IC50 [8]: 8.13 µM
MIC50 [3]: 4 µg/mL (≈ 21 µM)
MIC90 [3]: 8 µg/mL (≈ 42.1 µM)
MIC [3]: 16 µg/mL (≈ 84.1 µM)
IC50 [4]: 10.9 µM
MIC50 [5]: 16 µg/mL (≈ 84.1 µM)
MIC90 [5]: 64 µg/mL (≈ 337 µM)
MIC [5]: 8 µg/mL (≈ 42.1 µM)
MIC50 [6]: 16 µg/mL (≈ 84.1 µM)
MIC90 [6]: 16 µg/mL (≈ 84.1 µM)
MIC [6]: 8 µg/mL (≈ 42.1 µM)
IC50 [7]: 14.9 µM

COc1ccnc2c(O)c([N+](=O)[O-])cc(Cl)c12 [Example 34, 5-Chloro-4-methoxy-7-nitroquinolin-8-ol]
IC50 [1]: 14 µM
MIC50 [2]: 4 µg/mL (≈ 15.7 µM)
MIC90 [2]: 8 µg/mL (≈ 31.4 µM)
MIC [2]: 4 µg/mL (≈ 15.7 µM)
IC50 [8]: 12.7 µM
MIC50 [3]: 32 µg/mL (≈ 126 µM)
MIC90 [3]: 32 µg/mL (≈ 126 µM)
MIC [3]: 32 µg/mL (≈ 126 µM)
IC50 [4]: 6.78 µM
MIC50 [6]: 8 µg/mL (≈ 31.4 µM)
MIC90 [6]: 32 µg/mL (≈ 126 µM)
MIC [6]: 8 µg/mL (≈ 31.4 µM)
IC50 [7]: 6.44 µM

CN(C)C(=O)N1CCN(c2ccnc3c(O)c([N+](=O)[O-])ccc23)CC1 [Example 25, 4-(8-Hydroxy-7-nitroquinolin-4-yl)-N,N-dimethylpiperazine-1-carboxamide]
IC50 [1]: 44.5 µM
MIC50 [2]: 16 µg/mL (≈ 46.3 µM)
MIC90 [2]: 16 µg/mL (≈ 46.3 µM)
MIC [2]: > 128 µg/mL
IC50 [8]: 47.2 µM
MIC50 [3]: 128 µg/mL (≈ 371 µM)
MIC90 [3]: > 128 µg/mL
MIC [3]: > 128 µg/mL
IC50 [4]: 32.4 µM
MIC50 [6]: 128 µg/mL (≈ 371 µM)
MIC90 [6]: > 128 µg/mL
MIC [6]: 32 µg/mL (≈ 92.7 µM)
IC50 [7]: 47.6 µM
